Results published in US20020049157A1, “Use of proteasome inhibitors for treating cancer, inflammation, autoimmune disease, graft rejection and septic shock” (priority 1998, published 2002).

What was measured:
C57BL/6 spleen cells = test: Mixed lymphocyte culture (MLR), alloantigen-specific response; type: cell-based, mouse; conditions: MLR treated on day 2 with LAC 8 μM for 3 h; restimulated after 8 days
Description: The C57BL/6 spleen cells (H-2^b) were stimulated with mitomycin c-treated BALB/c spleen cells (H-2^d). On day 2 when most of the H-2^d-specific cells were activated, the mixed lymphocyte culture (MLR) was treated with lactacystin (LAC, 8 μM) for 3 h. After wash, the cells were put back in culture for additional 8 days, and then stimulated with either fresh BALB/c or C3H (H-2^k) spleen cells. […] The difference is more pronounced in day three of the culture.
It is therefore an embodiment of this invention to use proteasome inhibitors, particularly lactacystin in transplantation and autoimmune diseases where certain undesirable activated T cells can be repressed or eliminated and the rest of the T cell population is generally unaffected by such inhibitors.

Jurkat cells = test: Cell cycle progress in synchronized Jurkat cells (propidium iodide flow cytometry); type: cell-based
Description: For the last 3 h of the treatment, LAC (6 μM) was added to the cultures destined to be treated by LAC later. The cells were then released by washing out nocodazole, and recultured in complete medium with or without 6 μM LAC. The cells were sampled at 0 h, 4 h and 8 h after the G2/M release, stained with propidium iodide, and analyzed with flow cytometry.
B. LAC slows the cell cycle progress from the G1/S boundary to the G2/M phase in synchronized Jurkat cells Jurkat cells were synchronized at the G1/S by isoleucine starvation followed by a hydroxyurea treatment. The synchronized cells were released by washing out hydroxyurea and were cultured in complete medium in the absence or presence of LAC (6 μM). The cells were sampled at 0 h, 3 h, 6 h, 9 h, 12 h, 15 h and 24 h after the release, and were stained with propidium iodide and analyzed with flow cytometry.
We used synchronized Jurkat cells to identify the LAC-sensitive phase(s) of the cell cycle. Jurkat cells were first synchronized at the G2/M boundary by nocodazole (FIG. 6A). […]
We next studied requirement of the proteasome activity for the progression from the G1/S boundary to the G2/M phase. […] It is to be noted that although the percentage of cells in the S/G2/M phase in the LAC-treated sample was similar to that of controls (the inset table of FIG. 6B), the peak of fluorescence was lagged behind (histogram array). […]

CC(=O)N[C@@H](CSC(=O)[C@]1([C@@H](O)C(C)C)NC(=O)[C@H](C)[C@@H]1O)C(=O)O [LAC, lactacystin]
response to restimulation with BALB/c cells (C57BL/6 spleen cells): failed to respond to the BALB/c cells | response to restimulation with third party C3H cells (C57BL/6 spleen cells): respond well to third party C3H | cell cycle progression from the G1/S boundary to the G2/M phase (Jurkat cells; HU-synchronized, LAC 6 μM added immediately after release): slowed but did not block | progress from G2/M through M phase to G1 phase (Jurkat cells; nocodazole-synchronized, LAC 6 μM 3 h before and after release): at a similar pace as the control cells
